Tests used:
[1] = system: Irritable Bowel Syndrome with Constipation (IBS-C) patients; settings: bis-HCl salt form, clinical; cited from earlier work
[2] = system: animal model of IBS-like colonic hypersensitivity; settings: cited from earlier work
[3] = Dissolution of capsule and tablet prototypes, USP apparatus II (paddle), 75 rpm, 900 mL media, 37° C.; format: physicochemical; settings: comparison between forms, prototypes or pH
Method: FIG. 1: Dissolution of 15 mg tenapanor HCl tablets and tenapanor free base tablets in FeSSIF media pH 5.0. Dissolution method: USP apparatus II (paddle), 75 rpm, 900 mL of media at 37° C. FIG. 2: Dissolution of capsule I, neat tenapanor HCl powder in HPMC capsules (Vcaps® from Capsugel®) in FaSSIF media pH 6.5, FeSSIF media pH 5 and in 0.1N HCl. Dissolution method: USP apparatus II (paddle), 75 rpm, 900 mL of media at 37° C. […] Below are the composition of some of the capsule and tablet formulations as well as maximum dissolution observed in 0.1N HCl, pH 5 FeSSIF media and pH 6 FaSSIF media. Tablets from the same prototype designation differed by tenapanor loading and salt/free-base form but had the same disintegrant, glidant and lubricant excipients in the same % w/w but varied in the % w/w of tenapanor and filler making up the remainder of tablet.

[4] = system: patients with hyperphosphatemia; settings: clinical; cited from earlier work

Compound: CN1Cc2c(Cl)cc(Cl)cc2[C@H](c2cccc(S(=O)(=O)NCCOCCOCCNC(=O)NCCCCNC(=O)NCCOCCOCCNS(=O)(=O)c3cccc([C@@H]4CN(C)Cc5c(Cl)cc(Cl)cc54)c3)c2)C1 [tenapanor, 1-[2-[2-[2-[[3-[(4S)-6,8-dichloro-2-methyl-3,4-dihydro-1H-isoquinolin-4-yl]phenyl]sulfonylamino]ethoxy]ethoxy]ethyl]-3-[4-[2-[2-[2-[[3-[(4S)-6,8-dichloro-2-methyl-3,4-dihydro-1H-isoquinolin-4-yl]phenyl]sulfonylamino]ethoxy]ethoxy]ethylcarbamoylamino]butyl]urea]
- abdominal pain [1]: reduce abdominal pain
- colonic sensory neuronal excitability and TRPV1 currents [2]: normalized colonic sensory neuronal excitability and Transient Receptor Potential Vanilloid 1 (TRPV1) currents
- visceral hyperalgesia [2]: reduced visceral hyperalgesia
- dissolution, comparison in words [3]: better dissolution at low pH
- serum phosphate [4]: lower serum phosphate
